Test results as given in patent publication US11717561B2, “Multimodal antimicrobial therapy” (Longhorn Vaccines and Diagnostics, LLC, priority 2013, dated 2023).
Like-named read-outs stand apart in the source and are kept apart here.

Key:
[1] = system: Mycobacterium smegmatis (MS); assay: Effect of antibiotics and lysostaphin on growth/lysis of live M. smegmatis, % T at 650 nm; type: cell-based
ethanol-killed MTB = type: cell-based, M. tuberculosis; conditions: 375 μg/ml
[2] = Rif 1 mg/ml, Lysostaphin 0 units/ml
[3] = Imp 1 mg/ml, Lysostaphin 0 units/ml

Lysostaphin: natural lysostaphin from S. staphylolyticus (Sigma Cat L7386), a 27 kD glycylglycine endopeptidase
% T 5 min ([1]; Lysostaphin alone 200 units/ml): 77.34% | % T 3 hours ([1]; Lysostaphin alone 200 units/ml): 71.54% | % T 20 hours ([1]; Lysostaphin alone 200 units/ml): 45.47%

CO[C@H]1/C=C/O[C@@]2(C)Oc3c(C)c(O)c4c(O)c(c(/C=N/N5CCN(C)CC5)c(O)c4c3C2=O)NC(=O)/C(C)=C\C=C\[C@H](C)[C@H](O)[C@@H](C)[C@@H](O)[C@@H](C)[C@H](OC(C)=O)[C@@H]1C [Rif, Rifampicin]
% T 5 min [1, 2]: 79.25% | % T 3 hours [1, 2]: 75.27% | % T 20 hours [1, 2]: 71.79%

C[C@@H](O)[C@H]1C(=O)N2C(C(=O)O)=C(SCCNC=N)C[C@H]12.O [Imp, Imipenem monohydrate]
% Transmission (% T) change from baseline (negative equals growth, positive equals lysis/killing) ([1]; Imipenem 1.0 mg/ml without lysostaphin): +12.54 % T | % T 5 min [1, 3]: 78.00% | % T 3 hours [1, 3]: 82.67% | % T 20 hours [1, 3]: 90.54%

Recombinant Lysostaphin: recombinant simulans lysostaphin produced in E. coli (Sigma-Aldrich)
% T at 3 min (ethanol-killed MTB; bacterial dilution 1:2): 86.268% | % T at 10 min (ethanol-killed MTB; bacterial dilution 1:2): 91.59% | % T at 20 min (ethanol-killed MTB; bacterial dilution 1:2): 92.587% | % T at 3 min (ethanol-killed MTB; bacterial dilution 1:4): 95.356% | % T at 10 min (ethanol-killed MTB; bacterial dilution 1:4): 77.33% | % T at 20 min (ethanol-killed MTB; bacterial dilution 1:4): 92.651% | % T at 3 min (ethanol-killed MTB; bacterial dilution 1:8): 97.308% | % T at 10 min (ethanol-killed MTB; bacterial dilution 1:8): 98.03% | % T at 20 min (ethanol-killed MTB; bacterial dilution 1:8): 98.186%
